Measurements from PubChem BioAssay AID330 (DTP/NCI, 2004).
Where “and” joins values, the source holds several entries; their conditions need not be identical. Equal entries are not always repeated. Inconclusive results and toxic doses are left out. The calls were made as follows: active = survival T/C of 150% or more; inactive = T/C below 125% in these data.

System: P388 leukemia ip, CD2F1 mice, survival T/C
Assay: NCI In Vivo Anticancer Drug Screen. Data for tumor model P388 Leukemia (intraperitoneal) in CD2F1 (CDF1) mice
Conditions: endpoint: median survival time, higher = longer survival
Method in brief: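 Mice carrying the transplanted tumor received test compound or vehicle. Survival was recorded in each group, and the value is the treated-group measurement divided by that of the vehicle-treated control group.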

[1] = dose: 120.0 mg/kg/injection, schedule: Q01DX005 (ip), vehicle: saline with Tween-80
[2] = dose: 240.0 mg/kg/injection, schedule: Q01DX005 (ip), vehicle: saline with Tween-80
[3] = dose: 50.0 mg/kg/injection, schedule: Q04DX003 (ip), vehicle: saline
[4] = dose: 100.0 mg/kg/injection, schedule: Q04DX003 (ip), vehicle: saline
[5] = dose: 200.0 mg/kg/injection, schedule: Q04DX003 (ip), vehicle: saline
[6] = dose: 50.0 mg/kg/injection, schedule: Q01DX005 (ip), vehicle: Klucel (hydroxypropylcellulose) (HPC)
[7] = dose: 100.0 mg/kg/injection, schedule: Q01DX005 (ip), vehicle: Klucel (hydroxypropylcellulose) (HPC)
[8] = dose: 200.0 mg/kg/injection, schedule: Q01DX005 (ip), vehicle: Klucel (hydroxypropylcellulose) (HPC)
[9] = dose: 12.5 mg/kg/injection, schedule: Q01DX005 (ip), vehicle: Klucel (hydroxypropylcellulose) (HPC)
[10] = dose: 25.0 mg/kg/injection, schedule: Q01DX005 (ip), vehicle: Klucel (hydroxypropylcellulose) (HPC)
[11] = dose: 12.5 mg/kg/injection, schedule: Q04DX003 (ip), vehicle: saline
[12] = dose: 50.0 mg/kg/injection, schedule: Q04DX003 (ip), vehicle: saline with Tween-80
[13] = dose: 100.0 mg/kg/injection, schedule: Q04DX003 (ip), vehicle: saline with Tween-80
[14] = dose: 200.0 mg/kg/injection, schedule: Q04DX003 (ip), vehicle: saline with Tween-80
[15] = dose: 100.0 mg/kg/injection, schedule: Q01DX001 (ip), vehicle: Klucel (hydroxypropylcellulose) (HPC)
[16] = dose: 400.0 mg/kg/injection, schedule: Q01DX001 (ip), vehicle: Klucel (hydroxypropylcellulose) (HPC)
[17] = dose: 15.0 mg/kg/injection, schedule: Q01DX005 (ip), vehicle: Klucel (hydroxypropylcellulose) (HPC)
[18] = dose: 100.0 mg/kg/injection, schedule: Q04DX002 (ip), vehicle: Klucel (hydroxypropylcellulose) (HPC)
[19] = dose: 200.0 mg/kg/injection, schedule: Q04DX002 (ip), vehicle: Klucel (hydroxypropylcellulose) (HPC)
[20] = dose: 400.0 mg/kg/injection, schedule: Q04DX002 (ip), vehicle: Klucel (hydroxypropylcellulose) (HPC)

Measured: T/C

O=C1CCc2ccccc2C1C(=O)CC(O)(c1ccccc1)c1ccccc1 (stereo not drawn)
inactive: dose: 12.5 mg/kg/injection, schedule: Q01DX009 (ip), vehicle: saline sonified 95 % of control | dose: 25.0 mg/kg/injection, schedule: Q01DX009 (ip), vehicle: saline sonified 100 % of control | dose: 50.0 mg/kg/injection, schedule: Q01DX009 (ip), vehicle: saline sonified 95 % of control

COC(=O)C1=C(C)NC(C)=C(C(=O)OC)C1c1ccc(NC(C)=O)cc1
inactive: dose: 60.0 mg/kg/injection, schedule: Q01DX005 (ip), vehicle: saline with Tween-80 113 % of control | [1] 111 % of control | [2] 113 % of control

O=[N+]([O-])c1cccc2c(S(=O)(=O)O)cccc12
inactive: [3] 90 % of control | [4] 100 % of control | [5] 90 % of control

O=C(N/N=C/C(O)C1OC(=O)C(O)C1O)c1ccncc1 (stereo not drawn)
inactive: [6] 105 % of control | [7] 101 % of control | [8] 99 % of control

CC(=O)NC(Cc1cc(I)c(OC(C)=O)c(I)c1)C(C)=O (stereo not drawn)
inactive: dose: 50.0 mg/kg/injection, schedule: Q01DX009 (ip), vehicle: Klucel (hydroxypropylcellulose) (HPC) 101 % of control | dose: 100.0 mg/kg/injection, schedule: Q01DX009 (ip), vehicle: Klucel (hydroxypropylcellulose) (HPC) 100 % of control | dose: 200.0 mg/kg/injection, schedule: Q01DX009 (ip), vehicle: Klucel (hydroxypropylcellulose) (HPC) 98 % of control

CC(=O)OC1(C)C(=O)OC/C2=C/CN(C)CCC(OC(=O)C(O)(C(C)Cl)CC1C)C2=O (stereo not drawn)
inactive: [9] 103 % of control | [10] 100 % of control | [6] 99 % of control and 103 % of control

CC1(C)CC([N+](C)(C)CCCCCC[N+](C)(C)C2CC(C)(C)N(O)C(C)(C)C2)CC(C)(C)N1O
inactive: [11] 105 % of control | dose: 25.0 mg/kg/injection, schedule: Q04DX003 (ip), vehicle: saline 100 % of control | [3] 103 % of control and 108 % of control

O=C(CNC(=O)OCc1ccccc1)NCC1OC(n2cnc3c(=O)[nH]cnc32)C(O)C1O (stereo not drawn)
inactive: [12] 102 % of control | [13] 94 % of control | [14] 98 % of control

CCCCCCC[n+]1ccccc1C#N
inactive: dose: 12.5 mg/kg/injection, schedule: Q04DX003 (ip), vehicle: saline with Tween-80 103 % of control and 107 % of control | dose: 25.0 mg/kg/injection, schedule: Q04DX003 (ip), vehicle: saline with Tween-80 100 % of control and 103 % of control | [12] 103 % of control | [13] 100 % of control and 118 % of control | [14] 99 % of control

Cc1nnc2sc(/C=C/c3ccccc3)nn12
inactive: [15] 101 % of control | dose: 200.0 mg/kg/injection, schedule: Q01DX001 (ip), vehicle: Klucel (hydroxypropylcellulose) (HPC) 102 % of control | [16] 101 % of control

C=C1C[C@]23C[C@@]1(O)CC[C@H]2[C@@]12C=C[C@@H](O1)C(C(=O)OCC)=C2[C@@H]3O
inactive: dose: 3.75 mg/kg/injection, schedule: Q01DX005 (ip), vehicle: saline 109 % of control | dose: 7.5 mg/kg/injection, schedule: Q01DX005 (ip), vehicle: saline 100 % of control | [17] 97 % of control | dose: 15.0 mg/kg/injection, schedule: Q01DX005 (ip), vehicle: saline 107 % of control | dose: 60.0 mg/kg/injection, schedule: Q01DX005 (ip), vehicle: Klucel (hydroxypropylcellulose) (HPC) 117 % of control

CCOC(=O)N(C)C(=O)NC
inactive: dose: 50.0 mg/kg/injection, schedule: Q01DX009 (ip), vehicle: saline 103 % of control and 105 % of control | dose: 100.0 mg/kg/injection, schedule: Q01DX009 (ip), vehicle: saline 103 % of control and 109 % of control | dose: 200.0 mg/kg/injection, schedule: Q01DX009 (ip), vehicle: saline 100 % of control and 104 % of control

O=c1ccn(C2CC(O)C(CO)O2)c(=O)[nH]1 (stereo not drawn)
inactive: [6] 100 % of control | [7] 101 % of control | [8] 106 % of control

N#Cc1c(-c2ccccc2)nc2sccn12
inactive: [15] 88 % of control | [16] 91 % of control

Cc1c2c(ccc3ccccc32)c[n+]2ccccc12
inactive: dose: 6.25 mg/kg/injection, schedule: Q04DX003 (ip), vehicle: other 105 % of control | dose: 6.25 mg/kg/injection, schedule: Q04DX003 (ip), vehicle: saline 109 % of control | dose: 12.5 mg/kg/injection, schedule: Q04DX003 (ip), vehicle: other 105 % of control | [11] 109 % of control

C=C1C(=O)O[C@@H]2/C=C(\C)CC/C=C(/C)CC[C@@H]12
inactive: dose: 12.5 mg/kg/injection, schedule: Q04DX003 (ip), vehicle: Klucel (hydroxypropylcellulose) (HPC) 100 % of control | dose: 25.0 mg/kg/injection, schedule: Q04DX003 (ip), vehicle: Klucel (hydroxypropylcellulose) (HPC) 107 % of control | dose: 50.0 mg/kg/injection, schedule: Q04DX003 (ip), vehicle: Klucel (hydroxypropylcellulose) (HPC) 100 % of control | dose: 100.0 mg/kg/injection, schedule: Q04DX003 (ip), vehicle: Klucel (hydroxypropylcellulose) (HPC) 113 % of control

CC(=O)N1C=[N+](C)C(C)(C)C1
inactive: [4] 103 % of control | [5] 90 % of control

CCOP(=O)(O)OCC.[Ga]
inactive: dose: 100.0 mg/kg/injection, schedule: Q04DX002 (ip), vehicle: saline with Tween-80 106 % of control | dose: 200.0 mg/kg/injection, schedule: Q04DX002 (ip), vehicle: saline with Tween-80 103 % of control | dose: 400.0 mg/kg/injection, schedule: Q04DX002 (ip), vehicle: saline with Tween-80 97 % of control

CC(=O)O/C(C#N)=C1\CCCC\C1=C(\C#N)OC(C)=O
inactive: dose: 6.25 mg/kg/injection, schedule: Q01DX001 (ip), vehicle: saline with Tween-80 103 % of control | dose: 12.5 mg/kg/injection, schedule: Q01DX001 (ip), vehicle: saline with Tween-80 107 % of control | dose: 25.0 mg/kg/injection, schedule: Q01DX001 (ip), vehicle: saline with Tween-80 103 % of control

CCC1(C(=O)OC)CCc2c(cc(OC)c3ccccc23)C1=O (stereo not drawn)
inactive: [6] 87 % of control | [7] 87 % of control | [8] 89 % of control

Cc1cnc(N/N=C/c2c(CO)cnc(C)c2O)s1
inactive: dose: 7.5 mg/kg/injection, schedule: Q01DX005 (ip), vehicle: Klucel (hydroxypropylcellulose) (HPC) 99 % of control | [17] 94 % of control | dose: 30.0 mg/kg/injection, schedule: Q01DX005 (ip), vehicle: Klucel (hydroxypropylcellulose) (HPC) 86 % of control | [1] 93 % of control | [2] 112 % of control

CCN(CCO)CCNc1ccc(C)c2sc3cc(Cl)ccc3c(=O)c12
inactive: [9] 104 % of control | [10] 104 % of control | [6] 101 % of control and 102 % of control | [7] 111 % of control

S=c1nc2ccccn2c(=S)n1-c1ccccn1
inactive: [12] 95 % of control | [13] 115 % of control

O=C(CSc1nc2ccccc2s1)NCCO
inactive: dose: 50.0 mg/kg/injection, schedule: Q01DX005 (ip), vehicle: saline with Tween-80 97 % of control | dose: 100.0 mg/kg/injection, schedule: Q01DX005 (ip), vehicle: saline with Tween-80 99 % of control | dose: 200.0 mg/kg/injection, schedule: Q01DX005 (ip), vehicle: saline with Tween-80 97 % of control

S=C(S)n1nc(-c2ccccc2)c(N=Nc2ccc(Br)cc2)c1-c1ccccc1
inactive: [18] 107 % of control | [19] 110 % of control | [20] 113 % of control

COc1ccc(CCN2CCC(CC3CCCCN3)CC2)cc1OC (stereo not drawn)
inactive: dose: 12.5 mg/kg/injection, schedule: Q01DX009 (ip), vehicle: distilled water + alcohol 103 % of control | dose: 25.0 mg/kg/injection, schedule: Q01DX009 (ip), vehicle: distilled water + alcohol 112 % of control | dose: 50.0 mg/kg/injection, schedule: Q01DX009 (ip), vehicle: distilled water + alcohol 105 % of control | dose: 100.0 mg/kg/injection, schedule: Q01DX009 (ip), vehicle: distilled water + alcohol 103 % of control

CCNC(=O)/N=c1/sc([N+](=O)[O-])cn1CC(=O)N1CCCCC1
inactive: [18] 100 % of control | [19] 99 % of control | [20] 98 % of control
